The source of these data is patent publication US20240024488A1, “COMPOUNDS AND USES THEREOF” (Foghorn Therapeutics Inc., priority 2020, published 2024).

In one assay the target is T1, HiBit-BRM fusion protein (Homo sapiens, UniProt P51531).
T1 construct: expressed in transfected cells
The assay can be described thus: HiBiT-BRM cell-based degradation assay (Nano-Glo HiBiT Lytic Detection, 24 h). The note with it: HeLa cell line expressing HiBiT-BRM; for DC50: read-out: BRM HiBit Degradation IC50. Put shortly: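 Stable HiBiT-BRM HeLa line; 24 h compound exposure, top final 30 μM, 3-fold, 10 pts in duplicate. Lytic HiBiT/LgBiT luminescence readout. % degradation vs DMSO (0%) and 2 μM known BRM/BRG1 degrader (100%).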

For assay [1], the target named is T2, HiBit-BRG1 fusion protein (Homo sapiens, UniProt P51532).
T2 construct: expressed in transfected cells
The assay is described as follows: HiBiT-BRG1 cell-based degradation assay (Nano-Glo HiBiT Lytic Detection, 24 h). The settings on record: HeLa cell line expressing HiBit-BRG1 and LgBit; for Dmax: read-out: BRG1 HiBit Degradation Maximum (%); for DC50: read-out: BRMG1 HiBit Degradation IC50. Put shortly: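 Seed 5000 HeLa HiBit-BRG1/LgBit cells per well; treat 24 h; equilibrate 15 min at room temperature; add Nano-Glo HiBiT lytic reagent, shake 10 min, read luminescence. Percent degradation is scaled between DMSO and 2 μM reference degrader wells.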

T1 sequence (P51531 whole entry, the tested form may be a part): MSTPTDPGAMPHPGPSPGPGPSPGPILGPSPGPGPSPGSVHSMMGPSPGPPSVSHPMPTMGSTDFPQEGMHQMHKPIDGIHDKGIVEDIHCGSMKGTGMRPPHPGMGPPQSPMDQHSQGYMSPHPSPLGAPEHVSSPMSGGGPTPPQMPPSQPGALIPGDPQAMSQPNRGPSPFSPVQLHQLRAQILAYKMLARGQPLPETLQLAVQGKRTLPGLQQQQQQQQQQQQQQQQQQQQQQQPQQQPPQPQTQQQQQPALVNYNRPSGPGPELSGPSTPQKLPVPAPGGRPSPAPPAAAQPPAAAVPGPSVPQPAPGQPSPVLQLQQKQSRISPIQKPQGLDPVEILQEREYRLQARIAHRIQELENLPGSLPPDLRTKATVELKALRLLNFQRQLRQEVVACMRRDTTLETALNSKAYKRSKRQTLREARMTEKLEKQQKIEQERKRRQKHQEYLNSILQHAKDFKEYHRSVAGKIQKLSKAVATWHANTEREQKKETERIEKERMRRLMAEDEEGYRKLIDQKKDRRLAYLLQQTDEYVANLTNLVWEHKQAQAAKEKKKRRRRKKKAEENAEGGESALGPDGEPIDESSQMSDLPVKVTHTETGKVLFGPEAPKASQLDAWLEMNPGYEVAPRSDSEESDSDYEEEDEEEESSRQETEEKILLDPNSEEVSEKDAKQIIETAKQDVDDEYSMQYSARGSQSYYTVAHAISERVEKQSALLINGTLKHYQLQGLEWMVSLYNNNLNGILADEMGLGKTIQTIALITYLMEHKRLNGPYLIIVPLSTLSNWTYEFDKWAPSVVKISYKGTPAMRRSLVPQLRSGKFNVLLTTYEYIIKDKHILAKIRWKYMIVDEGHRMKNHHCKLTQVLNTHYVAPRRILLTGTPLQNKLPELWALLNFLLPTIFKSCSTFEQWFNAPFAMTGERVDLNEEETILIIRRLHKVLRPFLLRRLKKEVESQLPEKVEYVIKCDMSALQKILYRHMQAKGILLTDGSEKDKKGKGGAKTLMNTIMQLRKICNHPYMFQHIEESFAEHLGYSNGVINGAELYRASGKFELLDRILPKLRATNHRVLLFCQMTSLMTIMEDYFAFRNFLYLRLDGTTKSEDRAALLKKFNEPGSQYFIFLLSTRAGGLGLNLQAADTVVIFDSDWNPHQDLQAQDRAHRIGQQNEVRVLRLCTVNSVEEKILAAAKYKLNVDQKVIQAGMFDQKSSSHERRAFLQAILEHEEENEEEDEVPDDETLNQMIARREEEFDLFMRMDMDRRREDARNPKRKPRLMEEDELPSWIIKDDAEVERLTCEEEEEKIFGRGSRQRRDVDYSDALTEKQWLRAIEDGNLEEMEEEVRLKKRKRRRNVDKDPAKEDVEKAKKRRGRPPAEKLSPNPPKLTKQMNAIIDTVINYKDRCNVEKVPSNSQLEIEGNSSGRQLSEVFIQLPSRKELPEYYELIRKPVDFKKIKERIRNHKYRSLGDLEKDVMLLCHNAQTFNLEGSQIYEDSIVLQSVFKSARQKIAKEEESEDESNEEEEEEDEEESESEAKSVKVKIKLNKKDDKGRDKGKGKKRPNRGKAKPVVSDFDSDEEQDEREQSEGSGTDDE
T2 sequence (P51532 whole entry, the tested form may be a part): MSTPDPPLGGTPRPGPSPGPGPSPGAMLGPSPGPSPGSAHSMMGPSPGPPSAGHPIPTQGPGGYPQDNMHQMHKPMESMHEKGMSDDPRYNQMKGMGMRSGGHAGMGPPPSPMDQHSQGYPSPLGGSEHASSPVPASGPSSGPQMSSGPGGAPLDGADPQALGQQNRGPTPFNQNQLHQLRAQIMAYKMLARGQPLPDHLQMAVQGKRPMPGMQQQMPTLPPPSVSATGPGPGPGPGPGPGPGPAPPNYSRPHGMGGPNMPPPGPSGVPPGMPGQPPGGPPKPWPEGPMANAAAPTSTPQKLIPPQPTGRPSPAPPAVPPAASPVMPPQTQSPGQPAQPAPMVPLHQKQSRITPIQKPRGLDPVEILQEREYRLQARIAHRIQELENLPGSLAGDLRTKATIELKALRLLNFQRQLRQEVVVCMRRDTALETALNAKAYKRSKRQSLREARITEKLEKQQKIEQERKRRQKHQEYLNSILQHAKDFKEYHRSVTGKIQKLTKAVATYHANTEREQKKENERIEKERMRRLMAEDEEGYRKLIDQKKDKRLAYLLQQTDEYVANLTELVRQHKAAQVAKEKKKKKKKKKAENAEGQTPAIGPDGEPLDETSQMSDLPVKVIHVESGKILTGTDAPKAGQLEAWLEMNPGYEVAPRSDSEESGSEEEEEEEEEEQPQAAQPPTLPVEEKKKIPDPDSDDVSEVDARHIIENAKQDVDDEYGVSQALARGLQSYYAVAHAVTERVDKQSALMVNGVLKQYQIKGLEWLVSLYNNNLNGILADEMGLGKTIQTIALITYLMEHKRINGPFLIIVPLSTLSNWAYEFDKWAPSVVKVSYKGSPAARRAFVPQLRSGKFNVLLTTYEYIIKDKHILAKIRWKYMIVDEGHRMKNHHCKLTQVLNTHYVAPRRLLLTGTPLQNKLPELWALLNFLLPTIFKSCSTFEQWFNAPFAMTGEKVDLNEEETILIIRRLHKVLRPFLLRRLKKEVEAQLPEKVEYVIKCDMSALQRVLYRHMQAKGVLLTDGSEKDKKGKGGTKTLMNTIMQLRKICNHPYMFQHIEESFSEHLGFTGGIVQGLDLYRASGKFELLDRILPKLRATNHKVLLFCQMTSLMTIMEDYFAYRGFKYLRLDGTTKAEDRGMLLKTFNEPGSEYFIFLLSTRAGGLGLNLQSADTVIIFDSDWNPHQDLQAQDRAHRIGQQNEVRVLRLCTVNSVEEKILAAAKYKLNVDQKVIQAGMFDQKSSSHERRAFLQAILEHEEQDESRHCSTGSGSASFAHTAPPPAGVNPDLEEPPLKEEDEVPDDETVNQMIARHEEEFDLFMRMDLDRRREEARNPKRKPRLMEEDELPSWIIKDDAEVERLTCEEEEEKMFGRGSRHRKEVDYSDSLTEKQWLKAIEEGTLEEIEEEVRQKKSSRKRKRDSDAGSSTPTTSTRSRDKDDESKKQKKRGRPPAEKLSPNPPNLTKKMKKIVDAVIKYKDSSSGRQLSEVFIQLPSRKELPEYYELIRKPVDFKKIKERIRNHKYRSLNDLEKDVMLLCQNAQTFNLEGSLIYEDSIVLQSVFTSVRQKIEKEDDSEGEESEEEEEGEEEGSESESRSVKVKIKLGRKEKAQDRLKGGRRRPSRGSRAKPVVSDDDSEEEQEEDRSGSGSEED

Consider `Cc1ncsc1-c1ccc([C@H](C)NC(=O)[C@@H]2C[C@@H](O)CN2C(=O)[C@@H](c2cc(N3C[C@@H]4C[C@H]3CN4C(=O)[C@H]3C[C@@]4(Cc5cc(-c6ccccc6O)nnc5N4)C3)no2)C(C)C)cc1` (racemic) [Compound 72, (2S,4R)-4-hydroxy-1-((R)-2-(3-((1S,4S)-5-((1S,3s)-3′-(2-hydroxyphenyl)-5′,7′-dihydrospiro[cyclobutane-1,6′-pyrrolo[2,3-c]pyridazine]-3-carbonyl)-2,5-diazabicyclo[2.2.1]heptan-2-yl)isoxazol-5-yl)-3-methylbutanoyl)-N-((S)-1-(4-(4-methylthiazol-5-yl)phenyl)ethyl)pyrrolidine-2-carboxamide], for which, at HiBit-BRM fusion protein, the “BRM HiBit Degradation Maximum (%)” value is “B (“B” indicates maximum degradation ≥ 50%)” and the DC50 was greater than 1000 nM. Moreover, the Dmax in assay [1] is less than 50%.

Regarding `Cc1ncsc1-c1ccc([C@H](C)NC(=O)[C@@H]2C[C@@H](O)CN2C(=O)[C@@H](c2cc(N3C[C@H]4C[C@@H]3CN4C(=O)[C@@H]3CCc4[nH]c5nnc(-c6ccccc6O)cc5c4C3)no2)C(C)C)cc1` [Compound 101, (2S,4R)-4-hydroxy-1-((R)-2-(3-((1R,4R)-5-((R)-3-(2-hydroxyphenyl)-6,7,8,9-tetrahydro-5H-pyridazino[3,4-b]indole-6-carbonyl)-2,5-diazabicyclo[2.2.1]heptan-2-yl)isoxazol-5-yl)-3-methylbutanoyl)-N-((S)-1-(4-(4-methylthiazol-5-yl)phenyl)ethyl)pyrrolidine-2-carboxamide], on HiBit-BRM fusion protein, the “BRM HiBit Degradation Maximum (%)” value is given as “A (“A” indicates maximum degradation ≥ 75%)” and the DC50 was less than 10 nM. Also, in assay [1], the Dmax was greater than 75% and the DC50 was greater than 10 nM.

Regarding `Cc1ncsc1-c1ccc([C@H](C)NC(=O)[C@@H]2C[C@@H](O)CN2C(=O)[C@@H](c2cc(OCCN3CC(n4c(=O)[nH]c5nnc(-c6ccccc6O)cc54)C3)no2)C(C)C)cc1` (racemic) [Compound 206, (2S,4R)-4-hydroxy-1-[(2R)-2-[3-(2-{3-[3-(2-hydroxyphenyl)-6-oxo-7H-imidazo[4,5-c]pyridazin-5-yl]azetidin-1-yl}ethoxy)-1,2-oxazol-5-yl]-3-methylbutanoyl]-N-[(1S)-1-[4-(4-methyl-1,3-thiazol-5-yl)phenyl]ethyl]pyrrolidine-2-carboxamide], the “BRM HiBit Degradation Maximum (%)” value on HiBit-BRM fusion protein is reported as “C (“C” indicates maximum degradation < 50%)”. Moreover, the Dmax in assay [1] was less than 50%.

On to `Cc1ncsc1-c1ccc([C@H](C)NC(=O)[C@@H]2C[C@@H](O)CN2C(=O)[C@@H](c2cc(OCCN3CC4(C3)CN(c3cc5cc(-c6ccccc6O)nnc5[nH]3)C4)no2)C(C)C)cc1` (racemic) [Compound 226, (2S,4R)-4-hydroxy-1-[(2R)-2-[3-(2-{6-[3-(2-hydroxyphenyl)-7H-pyrrolo[2,3-c]pyridazin-6-yl]-2,6-diazaspiro[3.3]heptan-2-yl}ethoxy)-1,2-oxazol-5-yl]-3-methylbutanoyl]-N-[(1S)-1-[4-(4-methyl-1,3-thiazol-5-yl)phenyl]ethyl]pyrrolidine-2-carboxamide], for which, at HiBit-BRM fusion protein, the “BRM HiBit Degradation Maximum (%)” value is on record as “A (“A” indicates maximum degradation ≥ 75%)” and the DC50 is greater than 100 nM. In addition, in assay [1], the Dmax is greater than 75% and the DC50 was greater than 100 nM.

`Cc1ncsc1-c1ccc(CNC(=O)[C@@H]2C[C@@H](O)CN2C(=O)[C@@H](NC(=O)CCCCCCCCCCCCCC(=O)N2CC(c3cc4cc(-c5ccccc5O)nnc4[nH]3)C2)C(C)(C)C)cc1` [Compound 20, (2S,4R)-4-hydroxy-1-((S)-2-(15-(3-(3-(2-hydroxyphenyl)-7H-pyrrolo[2,3-c]pyridazin-6-yl)azetidin-1-yl)-15-oxopentadecanamido)-3,3-dimethylbutanoyl)-N-(4-(4-methylthiazol-5-yl)benzyl)pyrrolidine-2-carboxamide]: the “BRM HiBit Degradation Maximum (%)” value at HiBit-BRM fusion protein is listed as “C (“C” indicates maximum degradation < 50%)”. In addition, the Dmax in assay [1] was less than 50%.

In the case of `Cc1ncsc1-c1ccc([C@H](C)NC(=O)[C@@H]2C[C@@H](O)CN2C(=O)[C@@H](c2cc(OCCCN3CC(c4[nH]c5nnc(-c6ccccc6O)cc5c4C)C3)no2)C(C)C)cc1` (racemic) [Compound 229, (2S,4R)-4-hydroxy-1-((R)-2-(3-(3-(3-(3-(2-hydroxyphenyl)-5-methyl-7H-pyrrolo[2,3-c]pyridazin-6-yl)azetidin-1-yl)propoxy)isoxazol-5-yl)-3-methylbutanoyl)-N-((S)-1-(4-(4-methylthiazol-5-yl)phenyl)ethyl)pyrrolidine-2-carboxamide], on HiBit-BRM fusion protein, the “BRM HiBit Degradation Maximum (%)” value is “A (“A” indicates maximum degradation ≥ 75%)” and the DC50 is greater than 1000 nM. Also, the Dmax in assay [1] was less than 50%.

Take `Cc1ncsc1-c1ccc([C@H](C)NC(=O)[C@@H]2C[C@@H](O)CN2C(=O)[C@@H](c2cc(OCCN3CC(c4[nH]c5nnc(-c6ccccc6O)cc5c4C)C3)no2)C(C)C)cc1` (racemic) [Compound 307, (2S,4R)-4-hydroxy-1-((R)-2-(3-(2-(3-(3-(2-hydroxyphenyl)-5-methyl-7H-pyrrolo[2,3-c]pyridazin-6-yl)azetidin-1-yl)ethoxy)isoxazol-5-yl)-3-methylbutanoyl)-N-((S)-1-(4-(4-methylthiazol-5-yl)phenyl)ethyl)pyrrolidine-2-carboxamide]: on HiBit-BRM fusion protein, the “BRM HiBit Degradation Maximum (%)” value was “A (“A” indicates maximum degradation ≥ 75%)” and the DC50 is less than 10 nM. In assay [1], the Dmax was greater than 75% and the DC50 is greater than 10 nM.

Regarding `Cc1ncsc1-c1ccc([C@H](C)NC(=O)[C@@H]2C[C@@H](O)CN2C(=O)[C@@H](c2cc(OCCN3CCC(N4CC(c5cc6cc(-c7ccccc7O)nnc6[nH]5)C4)CC3)no2)C(C)C)cc1` (racemic) [Compound 48, (2S,4R)-4-hydroxy-1-((R)-2-(3-(2-(4-(3-(3-(2-hydroxyphenyl)-7H-pyrrolo[2,3-c]pyridazin-6-yl)azetidin-1-yl)piperidin-1-yl)ethoxy)isoxazol-5-yl)-3-methylbutanoyl)-N-((S)-1-(4-(4-methylthiazol-5-yl)phenyl)ethyl)pyrrolidine-2-carboxamide], on HiBit-BRM fusion protein, the “BRM HiBit Degradation Maximum (%)” value is given as “A (“A” indicates maximum degradation ≥ 75%)” and the DC50 is greater than 10 nM. The Dmax in assay [1] was less than 50%.

Take `Cc1ncsc1-c1ccc([C@H](C)NC(=O)[C@@H]2C[C@@H](O)CN2C(=O)[C@@H](c2cc(OCCN3CCCC(c4cc5cc(-c6ccccc6O)nnc5[nH]4)C3)no2)C(C)C)cc1` (mixture of isomers) [Compound 286, (2S,4R)-4-hydroxy-1-((2R)-2-(3-(2-(3-(3-(2-hydroxyphenyl)-7H-pyrrolo[2,3-c]pyridazin-6-yl)piperidin-1-yl)ethoxy)isoxazol-5-yl)-3-methylbutanoyl)-N-((S)-1-(4-(4-methylthiazol-5-yl)phenyl)ethyl)pyrrolidine-2-carboxamide]: on HiBit-BRM fusion protein, the “BRM HiBit Degradation Maximum (%)” value is recorded as “A (“A” indicates maximum degradation ≥ 75%)” and the DC50 is greater than 10 nM. For the same molecule, the Dmax in assay [1] is less than 50%.
